The values that follow are results of earlier work, collected in patent US8551985B2, “Carbinol derivatives having heterocyclic linker” (Kowa Company, Ltd., priority 2009, dated 2013).

SMILES strings stand for the structures.

The target in this data set is T1, LXRβ (Homo sapiens, UniProt P55055).
T1 sequence (P55055 1-460): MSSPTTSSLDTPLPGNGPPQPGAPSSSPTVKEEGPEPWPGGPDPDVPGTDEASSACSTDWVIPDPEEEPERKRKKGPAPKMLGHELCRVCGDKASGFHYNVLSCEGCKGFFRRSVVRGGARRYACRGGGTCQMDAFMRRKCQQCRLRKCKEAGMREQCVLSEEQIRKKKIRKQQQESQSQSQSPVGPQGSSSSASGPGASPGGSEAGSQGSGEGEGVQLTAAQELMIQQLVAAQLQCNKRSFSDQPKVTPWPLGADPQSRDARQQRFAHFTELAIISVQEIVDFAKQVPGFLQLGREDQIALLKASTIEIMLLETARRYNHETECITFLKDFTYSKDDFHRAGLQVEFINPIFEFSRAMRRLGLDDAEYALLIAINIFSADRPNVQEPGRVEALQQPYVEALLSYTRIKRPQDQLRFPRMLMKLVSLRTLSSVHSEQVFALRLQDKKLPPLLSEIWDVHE

With `O=C(O)Cc1ccc(COc2cccc(-c3c(Cc4ccccc4)cnc4c(C(F)(F)F)cccc34)c2)cc1` [WAY-254011], the “LXRβ-selective binding affinity (α/β ratio)” value is on record as 1 to 5.
